Measured values published in US20140275257A1, “N-ACETYL CYSTEINE COMPOSITIONS IN THE TREATMENT OF SYSTEMIC LUPUS ERYTHEMATOSUS” (Foundation for the State University of New York, priority 2013, published 2014).

Assays:
Assay type in all cases: in vivo, human
lupus T cells = assay: Flow cytometry of mitochondrial transmembrane potential, mitochondrial mass, H2O2 and NO in T cells of treated SLE patients
Description: Cell viability was monitored with annexin V conjugated to fluorescein isothiocyanate (annexin V-FITC conjugate), annexin V conjugated to phycoerythrin (annexin V-PE conjugate), or annexin V conjugated to fluorochrome Cy5 (Annexin V-Cy5 conjugate) matched with emission spectra of propidium iodide (PrI) to detect Annexin V+/PrI− apoptotic cells. Mitochondrial transmembrane potential (ΔΨm) was monitored with mitochondrial potentiometric dyes such as 3,3′-dihexyloxacarbocyanine iodide ((DiOC6), using an excitation wavelength of […] and emission at 488 nm, recorded at 525 nm in the FL-1 (green fluorescence) channel); and tetramethylrhodamine, methyl ester ((TMRM), using an excitation wavelength of […], and emission at 543 nm, recorded at 567 nm in the FL-2 (yellow/orange fluorescence) channel), potential-insensitive mitochondrial dyes such as MitoTracker Green-FM (MTG, 100 nM; excitation: 490 nm, emission: 516 nm recorded in FL-1) or nonyl acridine orange (NAO, 50 nM; excitation: 490 nm, emission: 540 nm recorded in FL-1), superoxide sensing hydroethidine (HE, 1 μM) and H2O2-sensing dichlorofluorescein diacetate (DCF-DA, 1 μM), nitric oxide sensor 4-amino-5-methylamino-2′,7′-difluoroflourescein diacetate (DAF-FM, 1 μM, excitation: 495, emission: 515 nm recorded in FL-1), or cytosolic probes (Fluo-3, 1 μM, excitation: 506 nm, emission: 526 nm recorded in FL-1) and mitochondrial Ca^2+-sensitive fluorescent probes (Rhod-2, 1 μM), respectively.
All metabolic and mitochondrial sensor dyes were obtained from Invitrogen (Carlsbad, Calif.) and used as earlier described in Fernandez, D. R. et al., “Activation of mTOR controls the loss of TCR in lupus T cells through HRES-1/Rab4-regulated lysosomal degradation,” J. Immunol., 182: 2063-2073 (2009); Banki, K. et al., “Glutathione Levels and Sensitivity to Apoptosis Are Regulated by changes in Transaldolase expression,” J. Biol. Chem., 271: 32994-33001 (1996); Banki, K. et al., “Elevation of mitochondrial transmembrane potential and reactive oxygen intermediate levels are early events and occur independently from activation of caspases in Fas signaling,” J. Immunol., 162: 1466-1479 (1999); Nagy, G. et al., “T cell activation-induced mitochondrial hyperpolarization is mediated by Ca^2+- and redox-dependent production of nitric oxide,” J. Immunol., 171: 5188-5197 (2003); and Perl, A. et al., “Apoptosis and mitochondrial dysfunction in lymphocytes of patients with systemic lupus erythematosus,” In: Perl, A., editor. Autoimmunity: Methods and Protocol. 1 ed. Totowa, N.J.: Humana; 2004 p. 87-114, the entire disclosures of each of which are incorporated by reference herein.
NO production (FIG. 3D: DAF-FM fluorescence), and mitochondrial mass were measured in T cell subsets following CD3/CD28 stimulation for 16 h (FIG. 3E: NAO fluorescence). FIG. 3F: Spontaneous apoptosis rate was enumerated by the percentage of Ann V+/PrI− T cells after culture for 16 h. FIG. 3G: Activation-induced apoptosis was assessed following CD3/CD28 co-stimulation for 16 h. Visits: visit 1, before 1st NAC dose; visit 2, after 1-month treatment; visit 3, after 2-month treatment; visit 4, after 3-month treatment; visit 5, after 1-month washout.

GSH in whole blood = assay: HPLC assay of GSH in whole blood of SLE patients; conditions: after 1 and 2 months of NAC treatment
Protocol: Reduced glutathione (GSH) was measured by reverse phase ion-exchange HPLC using UV detection at 365 nm, as described in Gergely, P. J. et al., “Mitochondrial hyperpolarization and ATP depletion in patients with systemic lupus erythematosus,” Arth. Rheum., 46: 175-190 (2002); and Hanczko, R. et al., “Prevention of hepatocarcinogenesis and acetaminophen-induced liver failure in transaldolase-deficient mice by N-acetylcysteine,” J. Clin. Invest., 119: 1546-1557 (2009). The disclosures of each of these references are incorporated by reference herein in their entirety.
GSH was measured in whole blood and peripheral blood lymphocytes (PBL) before (visit 1; 0 h) and after the first NAC/placebo dose (visit 1; 3 h and 6 h) and upon each monthly follow-up visit (visits 2-4: between 9-11 am after having taken the last NAC/placebo capsule 8 pm the night before), and after 1 month wash-out (visit 5). HPLC analysis required ˜0.25 ml of whole blood and 5×10^6 PBL which were obtained from a total of 10 ml of blood collected at each time point.

SLE patients = assay: Tolerance and safety, double-blind placebo-controlled pilot study of NAC in SLE
Protocol: 36 patients with stable disease were enrolled in a double-blind placebo-controlled treatment trial with N-acetylcysteine (NAC; FDA approval, IND No: 101,320; clinicaltrials.gov identifier: NCT00775476). SLE patients were randomized to receive either placebo (placebo group—dextrose) or NAC (test group) in one of three treatment arms of increasing doses for three months: 600 mg twice daily (Dose 1), 1,200 mg twice daily (Dose 2), or 2,400 mg twice daily (Dose 3). 12 patients were enrolled per treatment arm, 9 received NAC while 3 received placebo.
At each visit, patients were specifically asked about common side effects (nausea, bloating, bad taste) seen in prior trials These side effects were reviewed by the Data Safety and Monitoring Board (DSMB) bi-annually. Tolerance and safety were primary clinical outcomes.
All 24 patients in Dosing Group 1 (1.2 g/day NAC) and 2 (2.4 g/day NAC) completed the treatment and none of the […] in Dosing Group 1 (1.2 g/day NAC) or 2 (2.4 g/day NAC) reported unpleasant smell or taste. Three of 12 patients in Dosing Group 3 (4.8 g/day) dropped out (Table 6) due to 1) heartburn after 26 days, which resolved after discontinuing the capsules; 2) recurrent nausea and one-time vomiting after 46 days, with resolution after discontinuing the capsules; 3) headaches, which were eliminated by halving the dose to 2.4 g/day. Since all three patients reporting intolerance received NAC, in accordance with the DSMP, no higher dose was initiated. Following the last Dosing Group 3 visit, the study was un-blinded.

[1] = Double Negative (DN) T cells after 3-month NAC treatment, declined after washout

CC(=O)N[C@@H](CS)C(=O)O [NAC, N-acetyl-L-cysteine]
Mitochondrial mass (lupus T cells; DN T cells following CD3/CD28 co-stimulation): robustly increased | H2O2 levels (lupus T cells; [1]): increased | Mitochondrial mass (lupus T cells; [1]): increased | production of NO (lupus T cells; after 3 months, p=0.002): 1.61±0.17 fold | Δψm (mitochondrial transmembrane potential) (lupus T cells; all T cells, p=0.0001): increased | GSH in whole blood (GSH in whole blood): increased | patients reporting unpleasant smell or taste (SLE patients; Dosing Group 1 (1.2 g/day NAC) or 2 (2.4 g/day NAC)): none | patients dropped out (heartburn; recurrent nausea and vomiting; headaches) (SLE patients; Dosing Group 3 (4.8 g/day), all three received NAC): Three of 12 | safety and tolerance (SLE patients; all SLE patients, up to 2.4 g/day): safe and tolerated | patients with reversible nausea (SLE patients; patients receiving 4.8 g/day): 33%
